Assay results: BindingDB's records for doi:10.1021/bi300490r (University of Pittsburgh, 2012)

Assays:
[1] = molecular target: T1, DNA-(apurinic or apyrimidinic site) endonuclease (Homo sapiens, UniProt P27695); assay: Molecular Beacon Assay
Experimental: A fluorescenc-based molecular beacon assay to measure APE-1 protein activity and inhibition was performed as described.

[2] = molecular target: T1, DNA-(apurinic or apyrimidinic site) endonuclease; assay: Gel-Based Assay
From the text: In addition to the real-time fluorescence assay for studying inhibition of APE-1 activity, we also employed a gel-based assay to visualize and quantify repair activity of APE-1 and its inhibition.

T1 sequence (P27695 whole entry): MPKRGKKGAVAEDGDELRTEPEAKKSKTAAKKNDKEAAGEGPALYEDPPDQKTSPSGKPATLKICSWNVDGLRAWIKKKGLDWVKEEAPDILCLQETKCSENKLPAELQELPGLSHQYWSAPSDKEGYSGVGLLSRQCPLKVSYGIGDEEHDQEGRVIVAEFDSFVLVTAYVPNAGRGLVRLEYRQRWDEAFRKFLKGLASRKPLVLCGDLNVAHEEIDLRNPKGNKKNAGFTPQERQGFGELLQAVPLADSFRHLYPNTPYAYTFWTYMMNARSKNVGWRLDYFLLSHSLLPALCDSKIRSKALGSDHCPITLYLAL

Structure (SMILES) | Ki [1] [µM] | IC50 [2] [µM]
CCn1c2ccccc2c2cc(CN=Nc3cc(C)nc4cc5c(cc34)OCO5)ccc21 [NSC332395, 4] | 0.12 | 4.1
C/C(=N\Nc1cc(C)c2ccccc2n1)c1cn(C)n(-c2ccccc2)c1=O [NSC332410, 8] |  | > 100
Cc1ccc2nc(C)cc(N=NC(C)c3cn(C)n(-c4ccccc4)c3=O)c2c1 (configuration not stated) [NSC300598, 7] | 10.9 | 
COc1ccc(C(Cc2ccccc2)/N=N/c2ccc([N+](=O)[O-])c([N+](=O)[O-])c2)cc1 (configuration not stated) [NSC131534, 11] | 6.7 | 
N=c1[nH]nc2nc(CC(=O)c3ccccc3[N+](=O)[O-])c(CC(=O)c3ccccc3[N+](=O)[O-])nn12 [NSC614430, 13] | 4.9 | 
O=C(CC(=Nc1ccccc1)C(=O)c1ccccc1)c1ccccc1 [NSC402686, 14] | 37 | 
O=C(O)C(CCCCNc1ccc([N+](=O)[O-])cc1[N+](=O)[O-])Nc1ccc([N+](=O)[O-])cc1[N+](=O)[O-] (configuration not stated) [NSC89640, 9] | 13 | 
O=C(/C=C\c1ccc([N+](=O)[O-])cc1)NCCCCNC(=O)/C=C/c1ccc([N+](=O)[O-])cc1 [NSC107215, 10] | 17 | 

Continued, values first:

Ki [1] [µM] | IC50 [2] [µM] | Structure (SMILES)
0.22 | 10.1 | COc1cccc(CN=Nc2cc(C)nc3cc4c(cc23)OCO4)c1 [NSC332384, 2]
0.18 | 4.4 | Cc1cc(N=NC(C)c2cn(C)n(-c3ccccc3)c2=O)c2cc3c(cc2n1)OCO3 (configuration not stated) [NSC332398, 1]
0.68 | 34.4 | Cc1cc(N=NCc2c(C)n(C)n(-c3ccccc3)c2=O)c2cc3c(cc2n1)OCO3 [NSC332396, 5]
0.19 | 2.9 | Cc1cc(N=NCc2ccc3c(c2)OCO3)c2cc3c(cc2n1)OCO3 [NSC332389, 3]
